US4851411A, “5-monoaryl as.-triazin-3-ones substituted in 2-position, and their use as medicaments” (Pierre Fabre Medicament, priority 1986, dated 1989)
Structures can show the parent of a compound that is named as a salt.

What was measured:
[1] = Toxicity study in the mouse, oral single dose (LD50); format: in vivo; conditions: for toxicity: summary in conclusion
Procedure: The toxicity study was carried out in the conventional mouse, weighing about 20 g.
The substances were administered orally in a single dose of 300 and 1000 mg/kg respectively. At these doses we were not able to determine the LD50 's which are higher >1000 mg/kg.

5 HTP = assay: Potentialization of 5 HTP; format: in vivo
Description: The tests used for the pharmacological screening are:
the potentialization of 5 HTP (Ref.: Christensen, A. V. et al., Eur. J. of Pharm. (1977), 41, 153-162)

[2] = Anxiolytic activity, group of tests (LAB-X elevated plus-maze, SKINNER, VOGEL); format: in vivo, rat; conditions: 30 mg/kg by mouth
Description: These compounds were also studied in order to test for anxiolytic activity using a group of tests
(Ref.: LAB-X: Sh. Pellow, Ph. Chopin, S. E. File and M. Briley--Validation of open:closed arm entries in an elevated plus-maze as a measure of anxiety in the rat (Journal of Neuroscience Methods, 14 (1983), 149-167)
SKINNER: GELLER and SEIFTER, Psychopharmacologia (1960) 1, 482-492

Solubility = format: physicochemical
[3] = aqueous dilute acids, in the hot

solubility in alcohols (Solubility) | solubility in chloroform (Solubility; chloroform) | solubility in methylene chloride (Solubility; methylene chloride) | solubility in water (Solubility) | solubility in ether (Solubility) | Compound | ED50 (5 HTP) | also measured
 | Soluble | Soluble | insoluble | insoluble | COc1ccc(C2C=NN(CCCN3CCN(c4cccc(Cl)c4)CC3)C(=O)N2)cc1 (stereo not drawn) [Example 12, 2-N-γ propyl(m-chlorophenylpiperazine) 3-oxo 4,5-dihydro 5-p-methoxyphenyl as.-triazine] |  | solubility in alcohols in the hot (Solubility; in the hot): Soluble; solubility in aqueous dilute acids in the hot (Solubility; [3]): Soluble
 | Poorly soluble | Poorly soluble |  |  | COc1ccc(-c2cnn(CCN3CCN(c4cccc(Cl)c4)CC3)c(=O)n2)cc1 [Example 10, 2 β ethyl(metachlorophenyl)piperazine 3-oxo 5-p-methoxyphenyl as.-triazine] |  | solubility in aqueous dilute acids in the hot (Solubility; [3]): Soluble
Insoluble |  |  | Insoluble |  | COc1ccc(-c2cnn(CC(=O)c3ccc(C)cc3)c(=O)n2)cc1 [Example 38, 2-p.methylphenacyl 3-oxo 5-p.methoxyphenyl as triazine] |  | solubility in acetic acid (Solubility): Soluble
 | Soluble | Soluble | insoluble | insoluble | COc1ccc(-c2cnn(CCN3CCN(c4cccc(C(F)(F)F)c4)CC3)c(=O)n2)cc1 [Example 16, 2-β ethyl (m-trifluoromethylphenyl) piperazine 3-oxo 5-p-methoxyphenylas.-triazine] |  | solubility in benzene (Solubility): poorly soluble
insoluble |  |  | insoluble | insoluble | CC(=O)c1ccc(N2CCN(CCCn3ncc(-c4ccc(C)cc4)nc3=O)CC2)cc1 [Example 11, 2-γ propyl p-piperazinoacetophenone 3-oxo 5-methylphenyl as.-triazine] |  | solubility in alcohols in the hot (Solubility; in the hot): Soluble; solubility in chloroform in the hot (Solubility; chloroform, in the hot): Soluble; solubility in methylene chloride in the hot (Solubility; methylene chloride, in the hot): Soluble
 | Soluble | Soluble | insoluble | insoluble | Cc1ccc(-c2cnn(CCCN3CCN(c4cccc(Cl)c4)CC3)c(=O)n2)cc1 [Example 14, 2-γ(m-chlorophenylpiperazine)-propyl 3-oxo 5-p-methylphenyl as.-triazine hydrochloride] |  | 

The remaining lines, values behind:

Compound | solubility in alcohols (Solubility) | solubility in chloroform (Solubility; chloroform) | solubility in methylene chloride (Solubility; methylene chloride) | solubility in water (Solubility) | solubility in ether (Solubility) | ED50 (5 HTP) | also measured
COc1ccc(-c2cnn(C3CCOC3=O)c(=O)n2)cc1 (stereo not drawn) [Example 21, 2-γ-butyrolactone 3-oxo 5-p-methoxyphenyl as.-triazine] | poorly soluble | Soluble | Soluble | insoluble |  | 27 mg/kg | toxicity [1]: very low toxicity; anxiolytic activity [2]: significant results; solubility in benzene (Solubility): poorly soluble
COc1ccc(-c2cnn(C(C)C(C)=O)c(=O)n2)cc1 (stereo not drawn) [Example 4, 2-alpha-methylacetonyl 3-oxo 5-p-methoxyphenyl as.-triazine] |  | Soluble | Soluble | insoluble |  | 35 mg/kg | toxicity [1]: very low toxicity; anxiolytic activity [2]: significant results
CC(=O)COc1ccc(-c2cnn(C)c(=O)n2)cc1 [Example 9, 2-methyl 3-oxo 5-p-acetonoxyphenyl as.-triazine] |  | insoluble | Soluble | insoluble |  | 40 mg/kg | anxiolytic activity [2]: significant results; solubility in aqueous dilute acids (Solubility; aqueous dilute acids): Soluble
COc1ccc(-c2cnn(CC(N)=O)c(=O)n2)cc1 [Example 32, 2-N-acetamido 3-oxo 5-p-methoxyphenyl as.-triazine] | Insoluble | Insoluble |  | Insoluble | Insoluble | 20 mg/kg | toxicity [1]: very low toxicity
CC(C)C(=O)Cn1ncc(-c2ccccc2)nc1=O [Example 22, 2-(3-methyl-2-one butyl) 5-phenyl as.-triazine] |  | Soluble | Soluble | insoluble |  |  | anxiolytic activity [2]: significant results; solubility in alcohols in the hot (Solubility; in the hot): soluble
COc1ccc(-c2cnn(C(c3ccccc3)c3ccccc3)c(=O)n2)cc1 [Example 30, 2-N-diphenylmethyl 3-oxo 5-p-methoxyphenyl as.-triazine] |  | insoluble | Soluble | insoluble |  |  | solubility in alcohols in the hot (Solubility; in the hot): Soluble
COc1ccccc1-c1cnn(CC(C)=O)c(=O)n1 [Example 23, 2-acetonyl 3-oxo 5-o-methoxyphenyl as.-triazine] |  | Soluble | Soluble | insoluble | insoluble | 50 mg/kg | 
Cc1ccc(-c2cnn(C3CCOC3=O)c(=O)n2)cc1 (stereo not drawn) [Example 20, 2-butyrolactone 3-oxo 5-p-methylphenyl as.-triazine] |  | Soluble | Soluble | insoluble | poorly soluble |  | solubility in benzene (Solubility): poorly soluble
CC(=O)Cn1ncc(-c2ccc(OC3CCOC3=O)cc2)nc1=O (stereo not drawn) [Example 3, 2-acetonyl 3-oxo 5-p-(alphaoxy γ butryolactone)phenyl as.-triazine] |  | Insoluble |  | Insoluble | Insoluble |  | solubility in benzene (Solubility): Insoluble
COc1ccc(-c2cnn(C(CCO)C(=O)O)c(=O)n2)cc1 (stereo not drawn) [Example 18, 2-[3-(3-carboxy 1-propanol)] 3-oxo 5-p-methoxyphenyl as.-triazine] | rather soluble | Poorly soluble | Poorly soluble | insoluble |  |  | 
COc1ccc(-c2cnn(CC(C)=O)c(=O)n2)cc1 [Example 1, 2-acetonyl 3-oxo 5-p-methoxyphenyl ax.-triazine] |  |  |  |  |  | 25 mg/kg | LD50 ([1]; in vivo, mouse, oral, single dose): > 3000 mg/kg; toxicity [1]: very low toxicity; anxiolytic activity [2]: significant results
CCC(=O)Cn1ncc(-c2ccc(OC)cc2)nc1=O [Example 41, 2-(oxo-2' butyl) 3-oxo 5-p.methoxyphenyl as triazine] | Insoluble |  |  | Insoluble |  |  | solubility in acetic acid (Solubility): Soluble
